Assay results from PubChem BioAssay (NCI).
Where “and” joins values, the source holds several entries; their conditions need not be identical. Equal entries are not always repeated.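 The compound was tested at five concentrations on cells cultured in 96-well plates, with a 48-hour exposure period. GI50 = concentration required for 50% inhibition of growth. TGI: concentration producing complete growth inhibition.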

Columns and labels:
Assay in all cases: NCI-60 cell line screen, 48 h
SF-539 CNS = system: SF-539 CNS
RPMI-8226 leukemia = system: RPMI-8226 leukemia
SR leukemia = system: SR leukemia
EKVX NSCLC = system: EKVX NSCLC
TK-10 renal = system: TK-10 renal
SF-295 CNS = system: SF-295 CNS
SK-OV-3 ovarian = system: SK-OV-3 ovarian
UACC-62 melanoma = system: UACC-62 melanoma
SK-MEL-28 melanoma = system: SK-MEL-28 melanoma
HCT-116 colon = system: HCT-116 colon

SMILES	TGI (SF-539 CNS)	TGI (RPMI-8226 leukemia)	TGI (SR leukemia) [µM]	TGI (EKVX NSCLC)	TGI (TK-10 renal)	TGI (SF-295 CNS)	TGI (SK-OV-3 ovarian)	TGI (UACC-62 melanoma)	TGI (SK-MEL-28 melanoma)	TGI (HCT-116 colon)	GI50 (SF-539 CNS)	GI50 (SR leukemia)	GI50 (EKVX NSCLC) [µM]	GI50 (TK-10 renal)	GI50 (SF-295 CNS)	GI50 (SK-OV-3 ovarian)	GI50 (UACC-62 melanoma)	GI50 (SK-MEL-28 melanoma)	GI50 (HCT-116 colon)	GI50 (RPMI-8226 leukemia)
CCCCCCCC(=O)OC[n+]1cccc(-c2c(COC(=O)NC(C)C)c(COC(=O)NC(C)C)c3n2CCC3)c1	> 89.5 µM	> 100 µM	> 100	> 100 µM	> 100 µM	> 100 µM	> 100 µM	> 100 µM	> 100 µM	> 100 µM	–	–	–	–	–	–	–	–	–	–
Nc1cccc(C(=O)/C=C/c2ccccc2O)c1	> 100 µM	39.3 µM	> 100	> 100 µM	> 100 µM	> 100 µM	> 100 µM	> 100 µM	> 100 µM	> 100 µM	–	–	–	–	–	–	–	–	–	–
N#CC(C#N)=C/C=C/c1ccccc1[N+](=O)[O-]	> 10 µM	> 10 µM	> 10	> 10 µM	> 10 µM	> 10 µM	> 10 µM	9.39 µM	5.47 µM	3.67 µM	–	–	–	–	–	–	–	–	–	–
Cc1cc2nc3c(C(OC4OC(CO)C(O)C(O)C4O)C(O)CO)nn(-c4ccc(F)cc4)c3nc2cc1C (stereo not drawn)	> 100 µM	> 100 µM	> 100	> 100 µM	> 100 µM	> 100 µM	> 100 µM	> 100 µM	> 100 µM	> 100 µM	–	–	–	–	–	–	–	–	–	–
c1ccc(-c2nc3ccccc3[nH]2)c(OCCCCCOc2ccccc2-c2nc3ccccc3[nH]2)c1	11.5 µM	–	13.1	32.7 µM	30.8 µM	41.2 µM	34 µM	27.6 µM	14 µM	3.24 µM	3.44 µM	2.27 µM	11.8	13 µM	15.3 µM	14.2 µM	12.8 µM	3.07 µM	1.64 µM	–
COc1ccc2cc1Oc1ccc(cc1)CC1c3c(cc(OC)c4c3Oc3cc5c(cc3O4)CCNC5C2)CCN1C (stereo not drawn)	3.23 µM and 3.69 µM	4.3 µM and 3.42 µM	2.51	3.73 µM and 3.19 µM	3.68 µM and 3.12 µM	3.42 µM and 3.23 µM	15.5 µM and 3.11 µM	3.43 µM	3.5 µM and 3.54 µM	3.32 µM	1.9 µM	–	1.71	1.74 µM	1.8 µM	1.74 µM	–	1.84 µM	1.84 µM	1.61 µM
COc1ccccc1CNCCCN1C(=O)c2ccc3c4c(ccc(c24)C1=O)C(=O)N(CCCNCCCCN)C3=O	0.818 µM	6.13 µM	0.82	2.82 µM	4.63 µM	2.79 µM	2.86 µM	0.674 µM	1.54 µM	0.694 µM	0.296 µM	0.0928 µM	1.15	0.976 µM	0.678 µM	0.495 µM	0.237 µM	0.425 µM	0.216 µM	0.445 µM
COc1ccc(-c2nc3sccn3c2/C=C/C(=O)c2cc(OC)c(OC)c(OC)c2)cc1	4.96 µM	7.56 µM	> 28.2	> 100 µM	> 100 µM	18.3 µM	24.6 µM	9.15 µM	51.8 µM	12.6 µM	1.79 µM	2.41 µM	3.1	5 µM	2.91 µM	3.13 µM	2.08 µM	4.05 µM	2.19 µM	2.24 µM
COc1ccc(/C(C#N)=C2/O/C(=N/N)C(c3ccc(OC)c(OC)c3)C2=O)cc1OC (stereo not drawn)	> 100 µM	> 100 µM	> 100	> 100 µM	> 100 µM	> 100 µM	> 100 µM	> 100 µM	> 100 µM	> 100 µM	–	–	–	–	–	–	–	–	–	–
COc1ccc(N=C2C(=O)Nc3ccc(Br)cc32)cc1	35.8 µM	25.2 µM	28.6	47.1 µM	56.9 µM	> 100 µM	75.3 µM	19.9 µM	84.6 µM	35.2 µM	–	–	–	–	–	–	–	–	–	–
O=C(O)c1cc2ccc(Cl)cc2c(O)c1C1=CCCCC1	> 100 µM	> 100 µM	> 100	> 100 µM	> 100 µM	> 100 µM	> 100 µM	77.5 µM	> 100 µM	> 100 µM	–	–	–	–	–	–	–	–	–	–
c1ccc2[nH]c(-c3cscn3)nc2c1	> 100 µM	> 100 µM	> 100	> 100 µM	> 100 µM	> 100 µM	> 100 µM	> 100 µM	> 100 µM	> 100 µM	–	> 100 µM and 38.7 µM	–	–	–	–	–	–	–	> 100 µM and 31.7 µM
CC(=O)OCCc1cc2ccccc2oc1=O	> 100 µM	> 100 µM	> 100	> 100 µM	–	> 100 µM	–	> 100 µM	> 100 µM	> 100 µM	–	–	–	–	–	–	–	–	–	–
O=C(Nc1ccc(-n2cc(-c3ccncc3)c(-c3ccc(Cl)c(O)c3)n2)cc1)c1ccc(Cl)c(Cl)c1	> 100 µM	3.47 µM	> 100	> 100 µM	> 100 µM	2.77 µM	> 100 µM	22.4 µM	> 100 µM	> 100 µM	0.694 µM	3.6 µM	5.81	> 100 µM	1.01 µM	2.08 µM	3.22 µM	2.94 µM	2.89 µM	0.736 µM
Cc1ccc(-n2cc(/C(N)=N/O)c3ccccc3c2=O)cc1	> 100 µM	> 100 µM	> 100	> 100 µM	> 100 µM	> 100 µM	> 100 µM	> 100 µM	> 100 µM	> 100 µM	–	–	–	–	–	–	–	–	–	–
COC(=O)c1sc(=S)c2sc(C(=O)OC)c(C(=O)OC)c2c1C(=O)OC	> 100 µM	48.8 µM	48.2	> 100 µM	89.8 µM	> 100 µM	> 100 µM	> 100 µM	> 100 µM	> 100 µM	36.7 µM	23.3 µM	89.9	18.1 µM	39.3 µM	> 100 µM	36 µM	71.8 µM	45 µM	22 µM
CNc1ccc(CSc2ccc(C)cc2)cc1	24.5 µM	21.6 µM	90.1	> 100 µM	> 100 µM	> 100 µM	> 100 µM	52.9 µM	> 100 µM	> 100 µM	3.69 µM	6.15 µM	15.3	40.3 µM	22.3 µM	> 100 µM	17.3 µM	20.3 µM	32.9 µM	1.52 µM
CC1(C)O[C@@H](CCl)C[C@@H](C#N)O1	> 100 µM	> 100 µM	> 100	> 100 µM	> 100 µM	> 100 µM	> 100 µM	> 100 µM	> 100 µM	> 100 µM	–	–	–	–	–	–	–	–	–	–
CC(C)(C)OC(=O)CC(S(=O)(=O)c1ccccc1)S(=O)(=O)c1ccccc1	33.1 µM	19.7 µM	12.1	39.4 µM	3.02 µM	> 100 µM	–	24.1 µM	25.6 µM	2.78 µM	17.4 µM	3.1 µM	19.6	1.6 µM	> 100 µM	–	11.4 µM	12.9 µM	1.46 µM	3.49 µM
Nc1nc2c(ncn2C2OC(CO)C(O)C2O)c(=O)[nH]1 (stereo not drawn)	> 100 µM and 160 µM	> 100 µM and 139 µM	> 100	> 100 µM and 146 µM	–	> 100 µM and 184 µM	> 100 µM and 263 µM	> 100 µM and 175 µM	> 100 µM and 265 µM	> 100 µM and 201 µM	> 100 µM	> 100 µM	> 100	–	–	–	> 100 µM	–	> 100 µM	> 100 µM and 30.8 µM
CC(C)(C)c1cnc(CSc2cnc(NC(=O)C3CCNCC3)s2)o1	0.67 µM and 0.513 µM	0.45 µM and 0.768 µM	1.6	> 10 µM	5.23 µM and > 10 µM	> 10 µM	> 100 µM	0.403 µM and 0.702 µM	0.523 µM and 1.06 µM	> 100 µM	0.243 µM and 0.179 µM	0.0346 µM and 0.0265 µM	0.427	0.62 µM and 0.794 µM	0.185 µM and 0.602 µM	0.475 µM and 0.569 µM	0.16 µM and 0.178 µM	0.166 µM and 0.221 µM	0.102 µM and 0.0797 µM	0.118 µM and 0.243 µM
CN(C)CCC(/C=C/c1ccccc1)=N\Nc1c(F)c(F)c(F)c(F)c1F	> 100 µM	> 100 µM	> 100	> 100 µM	> 100 µM	> 100 µM	> 100 µM	> 100 µM	> 100 µM	> 100 µM	–	–	–	–	–	–	–	–	–	–
Cc1c(C(=O)/C=C/c2ccc3c(c2)OCO3)[n+](=O)c2ccccc2n1[O-]	49.3 µM	69.3 µM	> 100	69.3 µM	80.6 µM	95.7 µM	51.2 µM	75.2 µM	> 100 µM	75.1 µM	–	–	–	–	–	–	–	–	–	–
CN1CCC(C(=O)Nc2n[nH]c3nnc(-c4ccccc4)cc23)CC1	> 25 µM	> 25 µM	> 25	> 25 µM	> 25 µM	> 25 µM	> 25 µM	> 25 µM	> 25 µM	> 25 µM	11.7 µM	> 25 µM	> 25	> 25 µM	17.5 µM	16.6 µM	> 25 µM	> 25 µM	> 23.6 µM	> 25 µM
CN(C)CC(=O)N1CCc2c([nH]c3ccccc23)C1c1cccnc1 (stereo not drawn)	> 100 µM	> 100 µM	> 100	> 100 µM	> 100 µM	–	> 100 µM	> 100 µM	> 100 µM	> 100 µM	–	–	–	–	–	–	–	–	–	–
